Converted amounts (≈) assume the structure as drawn.
Key:
[1] = tested on: human fibroblast; experiment: in vitro; conditions: human
[2] = tested on: S. cerevisiae; experiment: in vitro; conditions: Saccharomyces cerevisiae
[3] = tested on: Cryptosporidium parvum (CP); experiment: Cell culture model of Cryptosporidium parvum infection in HCT-8 cells, real-time qRT-PCR; format: cell-based; conditions: Cryptosporidium parvum; for MIC50: 44 h, CP in HCT-8 cells, 44 h infection, 50% reduction of parasite growth vs control, NA: not active, read-out: MIC50; for inhibition at 0.25 µM: HCT-8, @0.25 uM
Experimental: Fresh oocysts of CP (Iowa strain) were purchased from Bunch Grass Farm (Deary, Id.). Oocysts were further purified by a Percoll-based gradient centrifugation method and surface sterilized with 10% bleach for 7 min on ice, followed by washes with phosphate-buffered saline (PBS). An ileocecal colorectal adenocarcinoma cell line (HCT-8, ATCC #CCL-244) was used to host the growth of CP in vitro. One day before the inoculation, HCT-8 cells were seeded in 96-well plates (2.5×10^4/well) containing RPMI 1640 medium supplied with 10% fetal bovine serum (200 μL medium/well in all experiments) and allowed to grow overnight at 37° C. under 5% CO2 atmosphere until they reached ˜90% confluence. For drug testing, host cells were infected with 1.5×10^4 oocysts per well (ratio ˜1:3). After inoculation, parasite oocysts were allowed to undergo excystation and invasion into host cells for 3 h at 37° C. Free parasites and oocyst walls in the medium were removed from the plates by an exchange of the culture medium. Drugs at specified concentrations were added into the culture at this time point (immediately after the medium exchange). Parasite-infected cells were then incubated at 37° C. for additional 41 h (total 44 h infection time). At least two independent experiments were conducted for every experimental condition, each including two replicates drugs and eight replicates for negative controls.
Plates containing HCT-8 cells infected with CP for 44 h were first centrifuged for 10 min at 1000×g to ensure that free merozoites in the medium were firmly settled on the bottom of the wells. Medium was removed, followed by two gentle washes with PBS. For extracting total RNA, 200 μL of ice-cold Bio-Rad iScript qRT-PCR sample preparation reagent (lysis buffer) (Bio-Rad Laboratories, Hercules, Calif.) was added into each well. Plates were sealed with heat sealing films and subjected to vortex for 20 min. Plates were then incubated at 75° C. for 15 min, followed by centrifugation (5 min, 2000×g) to settle down cell debris. Supernatants were used immediately in subsequent qRT-PCR reactions or the plates were stored at −80° C. until use.
The levels of 18S rRNA transcripts from CP and host cells (referred to as Cp18S and Hs18S) were detected by real-time qRT-PCR method using qScrip™ one-step SYBR green qRT-PCR kit (Quanta Biosciences, Gaithersburg, Md.). Cell lysates prepared as described above were diluted by 100 and 2000 folds for detecting Cp18S and Hs18S transcripts, respectively. Reactions were performed in hard-shell 384-well skirted PCR plates (Bio-Rad Laboratories, Hercules, Calif.) (10 μL/well) containing 3 μL diluted cell lysate, 5 μL one-step SYBR green master mix, 0.2 μl RT master mix and the following primers: Cp18S-1011F and Cp18S-1185R primer pair for Cp18S rRNA, and Hs18S-1F and Hs18S-1R primer pair for Hs18S rRNA. Hs18S levels were used as controls and for normalization.
Real-time qRT-PCR reactions were performed by a Bio-Rad CFX384 Touch Real-Time PCR Detection System. The reactions started with synthesizing cDNA at 50° C. for 20 min, followed by 5 min at 95° C. to denature RNA-cDNA hybrids and deactivate reverse transcriptase, and 40 two-temperature thermal cycles of PCR amplification at 95° C., 10 sec and 58° C., 30 sec. At the end of PCR amplification, melting curve analysis was performed between 65° C. to 95° C. At least 2 technical replicates were included in qRT-PCR reactions for each sample.
The % inhibition (% inh @ (μM)) was calculated using a standard curve.

Row | Structure (SMILES) | concentrations at which not toxic, human fibroblast cytotoxicity testing [1] | concentrations at which not toxic, S. cerevisiae cytotoxicity testing [2] | MIC50 [3] | inhibition at 0.25 µM [3] | inhibition at 10 µM ([3]; HCT-8, @10 uM, read-out: % inh @) | inhibition at 5 µM ([3]; HCT-8, @5 uM) | inhibition at 4 µM ([3]; HCT-8, @4 uM, read-out: % inh @)
1 | NCCNC(=O)Cc1ccc(Oc2nc3ccc(F)cc3s2)cc1 [NZ-427, N-(2-aminoethyl)-2-{4-[(6-fluoro-1,3-benzothiazol-2-yl)oxy]phenyl}acetamide] | ≥ 100 µM | ≥ 100 µM | < 0.25 µM | 71% | – | – | –
2 | CNC(=O)Cc1c(F)cc(Oc2nc3ccc(F)cc3s2)cc1F [NZ-433, 2-{2,6-difluoro-4-[(6-fluoro-1,3-benzothiazol-2-yl)oxy]phenyl}-N-methylacetamide] | ≥ 100 µM | ≥ 100 µM | ~2 µM (≈ 0.705 µg/mL) | – | – | – | –
3 | NC(=O)CNC(=O)Cc1ccc(Oc2nc3ccc(F)cc3s2)cc1 [NZ-438, N-(carbamoylmethyl)-2-{4-[(6-fluoro-1,3-benzothiazol-2-yl)oxy]phenyl}acetamide] | ≥ 100 µM | ≥ 100 µM | 0.25 to 1 µM (≈ 0.0898 to 0.359 µg/mL) | 43% | – | – | –
4 | O=C(O)Cc1ccc(Oc2nc3cc(F)c(F)cc3s2)cc1F [NZ-440, 2-{4-[(5,6-difluoro-1,3-benzothiazol-2-yl)oxy]-2-fluorophenyl}acetic acid] | ≥ 100 µM | ≥ 100 µM | ~10 µM (≈ 3.39 µg/mL) | – | 53% | – | –
5 | O=C(Cc1ccc(Oc2nc3ccc(F)cc3s2)cc1F)NC1CC1 [NZ-446, N-cyclopropyl-2-{2-fluoro-4-[(6-fluoro-1,3-benzothiazol-2-yl)oxy]phenyl}acetamide] | ≥ 100 µM | ≥ 100 µM | 1 to 4 µM (≈ 0.36 to 1.44 µg/mL) | – | – | – | –
6 | CNC(=O)Cc1c(F)cc(Oc2nc3cc(F)c(F)cc3s2)cc1F [NZ-450, 2-{4-[(5,6-difluoro-1,3-benzothiazol-2-yl)oxy]-2,6-difluorophenyl}-N-methylacetamide] | ≥ 100 µM | ≥ 100 µM | ~2 µM (≈ 0.741 µg/mL) | – | – | – | –
7 | CNC(=O)Cc1c(F)cc(Oc2nc3ccc(Cl)cc3s2)cc1F [NZ-459, 2-{4-[(6-chloro-1,3-benzothiazol-2-yl)oxy]-2,6-difluorophenyl}-N-methylacetamide] | ≥ 100 µM | ≥ 100 µM | 1 µM (≈ 0.369 µg/mL) | – | – | – | –
8 | CNC(=O)Cc1c(F)cc(Oc2cnc3cc(Cl)ccc3n2)cc1F [NZ-460, 2-{4-[(6-chloroquinoxalin-2-yl)oxy]-2,6-difluorophenyl}-N-methylacetamide] | ≥ 100 µM | ≥ 100 µM | – | – | – | 19% | –
9 | CN1CCN(C(=O)Cc2ccc(Oc3nc4ccc(Cl)cc4s3)cc2)CC1 [NZ-464, 2-{4-[(6-chloro-1,3-benzothiazol-2-yl)oxy]phenyl}-1-(4-methylpiperazin-1-yl)ethan-1-one] | ≥ 100 µM | ≥ 100 µM | 0.05 to 0.27 µM (≈ 0.0201 to 0.109 µg/mL) | – | – | – | –
10 | CC(C(=O)N1CCN(C)CC1)c1ccc(Oc2nc3cc(F)c(F)cc3s2)cc1 (stereo not drawn) [NZ-465, 2-{4-[(5,6-difluoro-1,3-benzothiazol-2-yl)oxy]phenyl}-1-(4-methylpiperazin-1-yl)propan-1-one] | ≥ 100 µM | ≥ 100 µM | < 0.25 µM | 68% | – | – | –
11 | CC(C(=O)N1CCN(C)CC1)c1ccc(Oc2nc3ccc(F)cc3s2)cc1 (stereo not drawn) [NZ-466, 2-{4-[(6-fluoro-1,3-benzothiazol-2-yl)oxy]phenyl}-1-(4-methylpiperazin-1-yl)propan-1-one] | ≥ 100 µM | ≥ 100 µM | 0.05 to 0.1 µM (≈ 0.02 to 0.0399 µg/mL) | – | – | – | –
12 | CN1CCN(C(=O)Cc2ccc(Oc3nc4ccc(F)cc4s3)cc2F)CC1 [NZ-467, 2-{2-fluoro-4-[(6-fluoro-1,3-benzothiazol-2-yl)oxy]phenyl}-1-(4-methylpiperazin-1-yl)ethan-1-one] | ≥ 100 µM | ≥ 100 µM | 0.25 to 1 µM (≈ 0.101 to 0.403 µg/mL) | – | – | – | –
13 | O=C(Cc1ccc(Oc2nc3ccc(F)cc3s2)cc1)N1CCCCC1 [NZ-471, 2-{4-[(6-fluoro-1,3-benzothiazol-2-yl)oxy]phenyl}-1-(piperidin-1-yl)ethan-1-one] | ≥ 100 µM | ≥ 100 µM | 1 to 4 µM (≈ 0.37 to 1.48 µg/mL) | – | – | – | 89%
14 | O=C(Cc1ccc(Oc2nc3ccc(F)cc3s2)cc1)N1CCNCC1 [NZ-472, 2-{4-[(6-fluoro-1,3-benzothiazol-2-yl)oxy]phenyl}-1-(piperazin-1-yl)ethan-1-one] | ≥ 100 µM | ≥ 100 µM | ~1 µM (≈ 0.371 µg/mL) | – | – | – | –
15 | CN1CCN(C(=O)Cc2ccc(Oc3nc4ccc(F)cc4s3)cc2)CC1 [NZ-476, 2-{4-[(6-fluoro-1,3-benzothiazol-2-yl)oxy]phenyl}-1-(4-methylpiperazin-1-yl)ethan-1-one] | ≥ 100 µM | ≥ 100 µM | 0.5 to 1 µM (≈ 0.193 to 0.385 µg/mL) | – | – | – | –
16 | CC(C(=O)N1CCNCC1)c1ccc(Oc2nc3ccc(F)cc3s2)cc1 (stereo not drawn) [NZ-477, 2-{4-[(6-fluoro-1,3-benzothiazol-2-yl)oxy]phenyl}-1-(piperazin-1-yl)propan-1-one] | ≥ 100 µM | ≥ 100 µM | 0.05 to 0.17 µM (≈ 0.0193 to 0.0655 µg/mL) | – | – | – | –
17 | O=C(Cc1ccc(Oc2nc3ccc(Cl)cc3s2)cc1)N1CCNCC1 [NZ-479, 2-{4-[(6-chloro-1,3-benzothiazol-2-yl)oxy]phenyl}-1-(piperazin-1-yl)ethan-1-one] | ≥ 100 µM | ≥ 100 µM | 0.5 to 1 µM (≈ 0.194 to 0.388 µg/mL) | – | – | – | –
18 | O=C(Cc1ccc(Oc2nc3cc(F)c(F)cc3s2)cc1)N1CCCCC1 [NZ-481, 2-{4-[(5,6-difluoro-1,3-benzothiazol-2-yl)oxy]phenyl}-1-(piperidin-1-yl)ethan-1-one] | ≥ 100 µM | ≥ 100 µM | 1 to 4 µM (≈ 0.388 to 1.55 µg/mL) | – | – | – | –
19 | NC(=O)Cc1ccc(Oc2nc3ccc(F)cc3s2)cc1F [NZ-484, 2-{2-fluoro-4-[(6-fluoro-1,3-benzothiazol-2-yl)oxy]phenyl}acetamide] | ≥ 100 µM | ≥ 100 µM | ~1 µM (≈ 0.32 µg/mL) | – | – | – | –
20 | NC(=O)Cc1ccc(Oc2nc3cc(F)c(F)cc3s2)cc1 [NZ-485, 2-{4-[(5,6-difluoro-1,3-benzothiazol-2-yl)oxy]phenyl}acetamide] | ≥ 100 µM | ≥ 100 µM | 1 to 4 µM (≈ 0.32 to 1.28 µg/mL) | – | – | – | –
21 | CC(C(=O)N1CCNCC1)c1ccc(Oc2nc3cc(F)c(F)cc3s2)cc1 (stereo not drawn) [NZ-489, 2-{4-[(5,6-difluoro-1,3-benzothiazol-2-yl)oxy]phenyl}-1-(piperazin-1-yl)propan-1-one] | ≥ 100 µM | ≥ 100 µM | < 0.25 µM | 68% | – | – | –
